Results on 19 molecules are retold here after patent US10144715B2, “Piperazine derivatives as liver X receptor modulators” (priority 2014, dated 2018).

Like-named read-outs stand apart in the source and are kept apart here.

For one experiment, the target named is LXR β LBD protein (Homo sapiens (Human), UniProt P55055). Description: biochemical. In kind it is binding.
Experiment [1] deals with Gal4 DNA binding domain fused to the LBD of LXRα in HEK293 cells (Homo sapiens (Human), UniProt Q13133). Description: LXR luciferase transcriptional reporter gene assay, agonist mode, LXRα. It counts as cell-based. To be noted: for EC50: read-out: Cell LXRα EC50. In general terms: A reporter such as luciferase makes a cellular process visible.
Gal4 DNA binding domain fused to the LBD of LXRα in HEK293 cells, sequence (Q13133 209-447): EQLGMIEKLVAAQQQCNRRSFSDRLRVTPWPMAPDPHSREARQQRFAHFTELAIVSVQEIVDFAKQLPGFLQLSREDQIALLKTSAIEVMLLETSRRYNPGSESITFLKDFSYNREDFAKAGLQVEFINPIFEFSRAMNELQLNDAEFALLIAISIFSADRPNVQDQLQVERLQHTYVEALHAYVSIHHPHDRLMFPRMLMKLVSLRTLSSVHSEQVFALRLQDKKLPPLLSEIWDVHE
Experiment [2] addresses Gal4 DNA binding domain fused to the LBD of LXRβ in HEK293 cells (Homo sapiens (Human), UniProt P55055). Put plainly: cell-based.
A further experiment deals with LXR α LBD protein (Homo sapiens (Human), UniProt Q13133). Description: LXR α radioligand binding assay (SPA, competition with [3H]TO901317). To be noted: read-out: LXRα Binding Ki.
LXR α LBD protein, sequence (Q13133 209-447): as above

LXR β LBD protein, sequence (P55055 222-460 limits assumed): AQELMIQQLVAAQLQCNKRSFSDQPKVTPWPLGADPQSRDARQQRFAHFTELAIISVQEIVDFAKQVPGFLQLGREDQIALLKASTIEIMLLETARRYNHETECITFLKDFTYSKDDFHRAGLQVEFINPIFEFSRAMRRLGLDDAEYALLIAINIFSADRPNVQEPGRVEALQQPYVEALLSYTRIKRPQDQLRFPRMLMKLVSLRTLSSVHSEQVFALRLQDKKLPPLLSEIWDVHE
Gal4 DNA binding domain fused to the LBD of LXRβ in HEK293 cells, sequence (P55055 222-460 limits assumed): as above

In general, Ki refers to a measure of affinity in units of concentration, obtained from inhibition or displacement. The term EC50 denotes the concentration at which the effect is half-maximal. Consider `CC(C)[C@@H]1CN(c2cc(S(C)(=O)=O)c(CO)cc2F)CCN1c1ncc(C(N)=O)c(C(F)(F)F)n1` [17-29, (R)-2-(4-(2-fluoro-4-(hydroxymethyl)-5-(methylsulfonyl)phenyl)-2-isopropylpiperazin-1-yl)-4-(trifluoromethyl)pyrimidine-5-carboxamide], for which the Ki at LXR β LBD protein (read-out: LXRβ Binding Ki) is 191 nM; on LXR α LBD protein it was 1270 nM. Also, the “Cell LXRα efficacy” value in experiment [1] is on record as 1950 (15) %. Further, the EC50 in experiment [1] (agonist mode) worked out at 1950 nM; in experiment [2], 142 nM. The “Cell LXRβ efficacy” value in experiment [2] (agonist mode) is on record as 142 (17) %.
Consider `CCN(CCOC)C(=O)c1cnc(N2CCN(c3ccc(F)c(S(C)(=O)=O)c3)C[C@H]2C(C)C)nc1C` [17-30, (R)-N-ethyl-2-(4-(4-fluoro-3-(methylsulfonyl)phenyl)-2-isopropylpiperazin-1-yl)-N-(2-methoxyethyl)-4-methylpyrimidine-5-carboxamide], for which the Ki on LXR β LBD protein is 1800 nM; on LXR α LBD protein it was over 3330 nM. Moreover, the EC50 in experiment [1] (agonist mode) and in experiment [2] was over 20000 nM each time.
`COCCCN(C)C(=O)c1cnc(N2CCN(c3ccc(F)c(S(C)(=O)=O)c3)C[C@H]2C(C)C)nc1C` [17-31, (R)-2-(4-(4-fluoro-3-(methylsulfonyl)phenyl)-2-isopropylpiperazin-1-yl)-N-(3-methoxypropyl)-N,4-dimethylpyrimidine-5-carboxamide]: the values for the Ki on LXR β LBD protein and at LXR α LBD protein were 2450 nM and over 3330 nM, respectively. For the same molecule, the concentration for a half-maximal effect (EC50) in experiment [1] (agonist mode) and in experiment [2] was over 20000 nM throughout.
Turning to `CN(C)C(=O)c1cnc(N2CCN(c3ccc(F)c(S(C)(=O)=O)c3)C[C@H]2c2ccc(F)cc2)nc1C(F)(F)F` [17-33, (R)-2-(4-(4-fluoro-3-(methylsulfonyl)phenyl)-2-(4-fluorophenyl)piperazin-1-yl)-N,N-dimethyl-4-(trifluoromethyl)pyrimidine-5-carboxamide], the inhibitory constant (Ki) amounted to 1220 nM on LXR β LBD protein and 10600 nM on LXR α LBD protein. For the same molecule, the EC50 in experiment [1] (agonist mode) and in experiment [2] was over 20000 nM in each case.
Take `CC(C)[C@@H]1CN(c2ccc(CO)c(S(C)(=O)=O)c2)CCN1c1nc(C(F)(F)F)c(C(=O)N(C)C)s1` [17-34, (R)-2-(4-(4-(hydroxymethyl)-3-(methylsulfonyl)phenyl)-2-isopropylpiperazin-1-yl)-N,N-dimethyl-4-(trifluoromethyl)thiazole-5-carboxamide]: the values for the inhibition constant Ki on LXR β LBD protein (read-out: LXRβ Binding Ki) and at LXR α LBD protein were 23 nM and 152 nM, respectively. Besides, in experiment [1], the “Cell LXRα efficacy” value is given as 465 (98) %. Also, the results for the EC50 in experiment [1] (agonist mode) and in experiment [2] were 465 nM and 105 nM, respectively. The “Cell LXRβ efficacy” value in experiment [2] (agonist mode) is 105 (94) %.
As to `CC(C)[C@@H]1CN(c2ccc(CO)c(S(C)(=O)=O)c2)CCN1c1nc(C(F)(F)F)c(C(N)=O)s1` [17-35, (R)-2-(4-(4-(hydroxymethyl)-3-(methylsulfonyl)phenyl)-2-isopropylpiperazin-1-yl)-4-(trifluoromethyl)thiazole-5-carboxamide], the Ki is 111 nM on LXR β LBD protein (read-out: LXRβ Binding Ki) and 1660 nM at LXR α LBD protein. The “Cell LXRα efficacy” value in experiment [1] is reported as 1738 (19) %. In addition, the results for the EC50 in experiment [1] and in experiment [2] were 1740 nM and 161 nM, respectively. Also, the “Cell LXRβ efficacy” value in experiment [2] (agonist mode) was 161 (23) %.
Regarding `CC(C)[C@@H]1CN(c2ccc(CO)c(S(C)(=O)=O)c2)CCN1c1nc(C(F)(F)F)c(C(C)(C)O)o1` [26-2, (R)-2-(2-(4-(4-(hydroxymethyl)-3-(methylsulfonyl)phenyl)-2-isopropylpiperazin-1-yl)-4-(trifluoromethyl)oxazol-5-yl)propan-2-ol], the figures for the Ki at LXR β LBD protein (read-out: LXRβ Binding Ki) and at LXR α LBD protein were 72 nM and 1180 nM, respectively. Besides, in experiment [1], the “Cell LXRα efficacy” value is reported as 2233 (99) %. Besides, the values for the concentration for a half-maximal effect (EC50) in experiment [1] and in experiment [2] were 2230 nM and 329 nM, respectively. Besides, the “Cell LXRβ efficacy” value in experiment [2] (agonist mode) is 329 (74) %.
As to `CC(C)(O)CC1CN(c2ccc(F)c(S(C)(=O)=O)c2)CCN1c1ccc(C(F)(F)F)cn1` (stereo not shown) [34-1, 1-(4-(4-fluoro-3-(methylsulfonyl)phenyl)-1-(5-(trifluoromethyl)pyridin-2-yl)piperazin-2-yl)-2-methylpropan-2-ol], the Ki on LXR β LBD protein (read-out: LXRβ Binding Ki) came out at 151 nM; on LXR α LBD protein, 1240 nM. Also, the “Cell LXRα efficacy” value in experiment [1] is given as 2456 (78) %. Moreover, the EC50 was 2460 nM in experiment [1] and 670 nM in experiment [2]. Besides, the “Cell LXRβ efficacy” value in experiment [2] (agonist mode) was 670 (83) %.
On to `CC(C)(F)CC1CN(c2ccc(F)c(S(C)(=O)=O)c2)CCN1c1ccc(C(F)(F)F)cn1` (stereo not shown) [35-1, 2-(2-fluoro-2-methylpropyl)-4-(4-fluoro-3-(methylsulfonyl)phenyl)-1-(5-(trifluoromethyl)pyridin-2-yl)piperazine], for which the Ki came out at 38 nM at LXR β LBD protein (read-out: LXRβ Binding Ki) and 272 nM on LXR α LBD protein. Besides, the “Cell LXRα efficacy” value in experiment [1] is recorded as 1522 (97) %. In addition, the EC50 in experiment [1] worked out at 1520 nM; in experiment [2], 499 nM. Also, the “Cell LXRβ efficacy” value in experiment [2] (agonist mode) is listed as 499 (88) %.
For `CC(C)[C@@H]1CN(c2cccc(S(C)(=O)=O)c2)CCN1c1ccc(C(F)(F)F)c(C2CC2)n1` [40-4, (R)-1-(6-cyclopropyl-5-(trifluoromethyl)pyridin-2-yl)-2-isopropyl-4-(3-(methylsulfonyl)phenyl)piperazine], the inhibition constant (Ki) at LXR β LBD protein (read-out: LXRβ Binding Ki) came out at 7 nM; on LXR α LBD protein, 14 nM. Besides, the “Cell LXRα efficacy” value in experiment [1] is 1057 (80) %. Besides, the half-maximal effective concentration (EC50) was found to be 1060 nM in experiment [1] and 214 nM in experiment [2].
Take `CC(C)[C@H]1CN(c2ccc(C#N)c(S(C)(=O)=O)c2)CCN1Cc1ccc(C(F)(F)F)cc1` [46-9, (S)-4-(3-isopropyl-4-(4-(trifluoromethyl)benzyl)piperazin-1-yl)-2-(methylsulfonyl)benzonitrile]: the inhibitory constant (Ki) is 231 nM on LXR β LBD protein (read-out: LXRβ Binding Ki) and over 3330 nM on LXR α LBD protein. In experiment [1], the “Cell LXRα efficacy” value is given as 2479 (57) %. In addition, the EC50 in experiment [1] (agonist mode) is 2480 nM; in experiment [2], 1080 nM. Moreover, in experiment [2] (agonist mode), the “Cell LXRβ efficacy” value is on record as 1078 (49) %.
Consider `C[C@@H](c1ccc(C(F)(F)F)cc1)N1CCN(c2cccc(S(C)(=O)=O)c2)C[C@H]1c1ccccc1` [46-17, (R)-4-(3-(methylsulfonyl)phenyl)-2-phenyl-1-((S)-1-(4-(trifluoromethyl)phenyl)ethyl)piperazine], for which the values for the Ki on LXR β LBD protein and at LXR α LBD protein were over 2500 nM and over 3330 nM, respectively. Moreover, the EC50 in experiment [1] and in experiment [2] was over 20000 nM throughout.
With `C[C@H](c1ccc(C(F)(F)F)cc1)N1CCN(c2cccc(S(C)(=O)=O)c2)C[C@H]1c1ccccc1` [46-19, (R)-4-(3-(methylsulfonyl)phenyl)-2-phenyl-1-((R)-1-(4-(trifluoromethyl)phenyl)ethyl)piperazine], the inhibition constant Ki is 1900 nM on LXR β LBD protein and over 3330 nM on LXR α LBD protein. The figures for the EC50 in experiment [1] and in experiment [2] were over 20000 nM and 4350 nM, respectively. Besides, the “Cell LXRβ efficacy” value in experiment [2] is 4348 (6) %.
As for `C[C@](O)(c1ccc(CN2CCN(c3cccc(S(C)(=O)=O)c3)C[C@H]2c2ccccc2)cc1)C(F)(F)F` [46-29, (S)-1,1,1-trifluoro-2-(4-(((R)-4-(3-(methylsulfonyl)phenyl)-2-phenylpiperazin-1-yl)methyl)phenyl)propan-2-ol], the inhibition constant Ki at LXR β LBD protein came out at 1860 nM; at LXR α LBD protein, 6320 nM. The 50% effective concentration (EC50) in experiment [1] and in experiment [2] was over 20000 nM each time.
Consider `C[C@@](O)(c1ccc(CN2CCN(c3cccc(S(C)(=O)=O)c3)C[C@@H]2c2ccccc2)cc1)C(F)(F)F` [46-31, (R)-1,1,1-trifluoro-2-(4-(((S)-4-(3-(methylsulfonyl)phenyl)-2-phenylpiperazin-1-yl)methyl)phenyl)propan-2-ol], for which the results for the Ki on LXR β LBD protein and on LXR α LBD protein were 2170 nM and 6560 nM, respectively. For the same molecule, the EC50 in experiment [1] and in experiment [2] was over 20000 nM throughout.
On to `CC(C)[C@H]1CN(c2cccc(S(C)(=O)=O)c2)CCN1Cc1ccc(C(F)(F)F)nc1` [46-41, (S)-2-isopropyl-4-(3-(methylsulfonyl)phenyl)-1-((6-(trifluoromethyl)pyridin-3-yl)methyl)piperazine], for which the figures for the inhibitory constant (Ki) at LXR β LBD protein (read-out: LXRβ Binding Ki) and at LXR α LBD protein were 161 nM and 1310 nM, respectively. The “Cell LXRα efficacy” value in experiment [1] was 2425 (60) %. Besides, the results for the EC50 in experiment [1] (agonist mode) and in experiment [2] were 2420 nM and 559 nM, respectively. Also, the “Cell LXRβ efficacy” value in experiment [2] (agonist mode) is 559 (68) %.
With `CC(C)[C@H]1CN(c2ccc(CO)c(S(C)(=O)=O)c2)CCN1Cc1ccc(C(F)(F)F)cc1` [47-2, (S)-(4-(3-isopropyl-4-(4-(trifluoromethyl)benzyl)piperazin-1-yl)-2-(methylsulfonyl)phenyl)methanol], the Ki on LXR β LBD protein (read-out: LXRβ Binding Ki) was determined as 27 nM. Moreover, in experiment [1], the “Cell LXRα efficacy” value is given as 455 (70) % and the EC50 was 455 nM. Besides, in experiment [2], the “Cell LXRβ efficacy” value is 159 (65) % and the midpoint of the response, the EC50, lay at 159 nM. Also, the Ki at LXR α LBD protein worked out at 119 nM.
As for `CC(C)[C@H]1CN(c2ccc(CO)c(S(C)(=O)=O)c2)CCN1Cc1ccc(C(F)(F)F)o1` [47-5, (S)-(4-(3-isopropyl-4-((5-(trifluoromethyl)furan-2-yl)methyl)piperazin-1-yl)-2-(methylsulfonyl)phenyl)methanol], the inhibitory constant (Ki) on LXR β LBD protein (read-out: LXRβ Binding Ki) was 109 nM. In experiment [1], the “Cell LXRα efficacy” value is 1187 (62) % and the concentration for a half-maximal effect (EC50) came to 1190 nM. For the same molecule, in experiment [2], the “Cell LXRβ efficacy” value was 248 (50) % and the 50% effective concentration (EC50) amounted to 248 nM. The inhibitory constant (Ki) on LXR α LBD protein stood at 1090 nM.
For the molecule `CC(C)[C@@H]1CN(c2ccc(F)c(S(C)(=O)=O)c2)CCN1C[C@H]1CC[C@@H](C(F)(F)F)CC1` [48-24, (R)-4-(4-fluoro-3-(methylsulfonyl)phenyl)-2-isopropyl-1-(((1s,4S)-4-(trifluoromethyl)cyclohexyl)methyl)piperazine], the Ki at LXR β LBD protein (read-out: LXRβ Binding Ki) was determined as 55 nM; at LXR α LBD protein, 765 nM. Moreover, the “Cell LXRα efficacy” value in experiment [1] is listed as 1347 (88) %. Also, the concentration giving a half-maximal response (EC50) in experiment [1] turned out to be 1350 nM; in experiment [2] (agonist mode, read-out: Cell LXRβ EC50), 563 nM. The “Cell LXRβ efficacy” value in experiment [2] (agonist mode) was 63%.
